Literature values in US20090047245A1, “Prognostic chronic hepatitis C biomarkers” (priority 2007, published 2009).

Test system: HCV

Compound: NC(=O)c1ncn([C@@H]2O[C@H](CO)[C@@H](O)[C@H]2O)n1 [ribavirin]
- increase of the sustained response rate (ribavirin added to interferon): two- to three-fold
- effect on HCV (ribavirin by itself): little effect on HCV
